{
  "source": "patent US20240182513A1",
  "about": "“SEPARATION OF METAL IONS FROM A SAMPLE USING GLYCOLIPIDS” (ARIZONA BOARD OF REGENTS ON BEHALF OF THE UNIVERSITY OF …, priority 2021, published 2024)",
  "key": {"[1]": {"assay": "Example 2.1 rhamnolipid precipitation, filtration, centrifugation: lead", "details": "for Treatment 2: Rhamnolipid and Filtration Cf / Treatment 3: Rhamnolipid and Centrifugation Cc / Treatment 1: Rhamnolipid Only Cr: lead concentration after treatment; for Treatment 1: Rhamnolipid Only (Rr) efficiency of removal / Treatment 2: Rhamnolipid and Filtration (Rf) efficiency of removal / Treatment 3: Rhamnolipid and Centrifugation (Rc) efficiency of removal: lead", "protocol": "(§1) Structural variants of synthetic glycolipids were used to show the effect of the number and length of the hydrophobic tail(s) on rhamnolipid as a chemical precipitant. […] Solutions (10 mM) were made using nanopure water (≥18 MΩ-cm) then adjusted to a pH of 6.9±0.05 with HNO3 and NaOH. These solutions were made in advance and stored in the cold room for up to one month. They were brought to room temperature before each experiment.\n(§2) Three metals were tested for binding with rhamnolipid. Lead as […] (Fisher Scientific, Waltham, MA, 99% purity), was chosen to represent a metal with high rhamnolipid-metal conditional stability constant; lanthanum as La(NO3)3 6(H2O) (Sigma-Aldrich, St. Louis, MO, 99.99% purity) was chosen as a representative REE; and magnesium as Mg(NO3)2 6(H2O) (Sigma-Aldrich, St. Louis, MO, 99% purity) was chosen to represent a metal with a low rhamnolipid-metal conditional stability constant (Hogan et al., 2017). Metal solutions (5 mM) were made using nanopure water (≥18 MΩ-cm) in 20 ml glass scintillation vials. All solutions were used within 15 min to ensure minimal adsorption to the glass vial.\n(§3) Three glycolipid-based treatments were evaluated to remove metal from solution: (1) the addition of glycolipid with no further treatment (gravitational precipitation), (2) the addition of a glycolipid followed by filtration or (3) the addition of a glycolipid followed by centrifugation. Each metal (Pb, La, and Mg) was evaluated separately with each of the glycolipid structures. For each experiment, a metal solution was mixed with a glycolipid solution in a 1.7 ml reaction tube at varying molar ratios of glycolipid to metal: 0:1 (glycolipid-free control), 2:1, 5:1, and 10:1. The reactions were mixed in the order of nanopure water (≥18 MΩ-cm), glycolipid solution (10 mM), then metal solution (5 mM). The metal and glycolipid solutions were continuously stirred as they were aliquoted into the reaction tubes. The experiment was performed in triplicate.\n(§4) The reaction tubes were mixed overnight (16 to 24 h) and then three samples were collected from each tube to measure the effect of each of the three treatments: a glycolipid only treatment sample, a filtration treatment sample, and a centrifugation treatment sample. Briefly, for the glycolipid only treatment samples all tubes were vortexed for approximately 5 sec immediately before removing 0.1 ml into a dilution tube of 2% trace metal grade nitric acid (12 to 14 ml) to minimize the settling of particles. For the filtration samples each reaction tube was vortexed for 5 sec and then a 0.6 ml aliquot was collected with a 1 ml syringe. A GHP acrodisc disk filter (hydrophilic polypropylene membrane, 0.45 μm pore size, 25 mm disc diameter) from Pall Life Sciences (Port Washington, New York) was then placed onto the end of the syringe and the solution was pushed through the filter. The void space in the disk filter holds approximately 0.5 ml, therefore around 0.1 ml of filtrate was collected into a dilution tube. For the centrifugation sample, the remaining solution was centrifuged at 10,000 RCF for 15 min. Approximately 0.1 ml of the supernatant was aliquoted into a dilution tube. Following collection, all samples were taken for metal analysis using ICP-MS."}, "[2]": {"assay": "Example 2.1 rhamnolipid precipitation, filtration, centrifugation: lanthanum", "details": "for Treatment 2: Rhamnolipid and Filtration Cf / Treatment 3: Rhamnolipid and Centrifugation Cc / Treatment 1: Rhamnolipid Only Cr: lanthanum concentration after treatment; for Treatment 1: Rhamnolipid Only (Rr) efficiency of removal / Treatment 2: Rhamnolipid and Filtration (Rf) efficiency of removal / Treatment 3: Rhamnolipid and Centrifugation (Rc) efficiency of removal: lanthanum", "protocol": "as §1, §2, §3, §4"}},
  "data": [
    {"smiles": "CCCCCCCCCC(CC(=O)O)OC(=O)CC(CCCCCCCCC)OC1O[C@@H](C)[C@H](O)[C@@H](O)[C@H]1O", "note": "(stereo partly drawn) [Rha C12C12, rhamnosyl-β-hydroxydodecanoyl-62-hydroxydodecanoate]", "values": [
      {"measurement": "Treatment 2: Rhamnolipid and Filtration Cf", "setting": "[1]; molar ratio 2 to 1", "value": "0.069 ± 0.018", "unit": "mmol/L"},
      {"measurement": "Treatment 3: Rhamnolipid and Centrifugation Cc", "setting": "[1]; molar ratio 2 to 1", "value": "0.146 ± 0.008", "unit": "mmol/L"},
      {"measurement": "Treatment 1: Rhamnolipid Only Cr", "setting": "[1]; molar ratio 5 to 1", "value": "0.204 ± 0.004", "unit": "mmol/L"},
      {"measurement": "Treatment 2: Rhamnolipid and Filtration Cf", "setting": "[1]; molar ratio 5 to 1", "value": "0.049 ± 0.021", "unit": "mmol/L"},
      {"measurement": "Treatment 3: Rhamnolipid and Centrifugation Cc", "setting": "[1]; molar ratio 5 to 1", "value": "0.047 ± 0.003", "unit": "mmol/L"},
      {"measurement": "Treatment 1: Rhamnolipid Only Cr", "setting": "[1]; molar ratio 10 to 1", "value": "0.249 ± 0.10", "unit": "mmol/L"},
      {"measurement": "Treatment 2: Rhamnolipid and Filtration Cf", "setting": "[1]; molar ratio 10 to 1", "value": "0.059 ± 0.028", "unit": "mmol/L"},
      {"measurement": "Treatment 3: Rhamnolipid and Centrifugation Cc", "setting": "[1]; molar ratio 10 to 1", "value": "0.129 ± 0.002", "unit": "mmol/L"},
      {"measurement": "Treatment 1: Rhamnolipid Only Cr", "setting": "[1]; molar ratio rhamnolipid:lead 2 to 1", "value": "0.211 ± 0.010", "unit": "mmol/L"},
      {"measurement": "Treatment 1: Rhamnolipid Only (Rr) efficiency of removal", "setting": "[1]; molar ratio 2 to 1", "value": "(22.4%)"},
      {"measurement": "Treatment 2: Rhamnolipid and Filtration (Rf) efficiency of removal", "setting": "[1]; molar ratio 2 to 1", "value": "(74.8%)"},
      {"measurement": "Treatment 3: Rhamnolipid and Centrifugation (Rc) efficiency of removal", "setting": "[1]; molar ratio 2 to 1", "value": "(46.4%)"},
      {"measurement": "Treatment 1: Rhamnolipid Only (Rr) efficiency of removal", "setting": "[1]; molar ratio 5 to 1", "value": "(25.0%)"},
      {"measurement": "Treatment 2: Rhamnolipid and Filtration (Rf) efficiency of removal", "setting": "[1]; molar ratio 5 to 1", "value": "(81.8%)"},
      {"measurement": "Treatment 3: Rhamnolipid and Centrifugation (Rc) efficiency of removal", "setting": "[1]; molar ratio 5 to 1", "value": "(82.8%)"},
      {"measurement": "Treatment 1: Rhamnolipid Only (Rr) efficiency of removal", "setting": "[1]; molar ratio 10 to 1", "value": "(8.6%)"},
      {"measurement": "Treatment 2: Rhamnolipid and Filtration (Rf) efficiency of removal", "setting": "[1]; molar ratio 10 to 1", "value": "(78.3%)"},
      {"measurement": "Treatment 3: Rhamnolipid and Centrifugation (Rc) efficiency of removal", "setting": "[1]; molar ratio 10 to 1", "value": "(52.8%)"},
      {"measurement": "Treatment 2: Rhamnolipid and Filtration Cf", "setting": "[2]; molar ratio 2 to 1", "value": "0.119 ± 0.007", "unit": "mmol/L"},
      {"measurement": "Treatment 3: Rhamnolipid and Centrifugation Cc", "setting": "[2]; molar ratio 2 to 1", "value": "0.164 ± 0.013", "unit": "mmol/L"},
      {"measurement": "Treatment 1: Rhamnolipid Only Cr", "setting": "[2]; molar ratio 5 to 1", "value": "0.197 ± 0.006", "unit": "mmol/L"},
      {"measurement": "Treatment 2: Rhamnolipid and Filtration Cf", "setting": "[2]; molar ratio 5 to 1", "value": "0.044 ± 0.009", "unit": "mmol/L"},
      {"measurement": "Treatment 3: Rhamnolipid and Centrifugation Cc", "setting": "[2]; molar ratio 5 to 1", "value": "0.074 ± 0.003", "unit": "mmol/L"},
      {"measurement": "Treatment 1: Rhamnolipid Only Cr", "setting": "[2]; molar ratio 10 to 1", "value": "0.263 ± 0.007", "unit": "mmol/L"},
      {"measurement": "Treatment 2: Rhamnolipid and Filtration Cf", "setting": "[2]; molar ratio 10 to 1", "value": "0.035 ± 0.001", "unit": "mmol/L"},
      {"measurement": "Treatment 3: Rhamnolipid and Centrifugation Cc", "setting": "[2]; molar ratio 10 to 1", "value": "0.057 ± 0.004", "unit": "mmol/L"},
      {"measurement": "Treatment 1: Rhamnolipid Only Cr", "setting": "[2]; molar ratio rhamnolipid:lanthanum 2 to 1", "value": "0.184 ± 0.014", "unit": "mmol/L"},
      {"measurement": "Treatment 1: Rhamnolipid Only (Rr) efficiency of removal", "setting": "[2]; molar ratio 2 to 1", "value": "(31.5%)"},
      {"measurement": "Treatment 2: Rhamnolipid and Filtration (Rf) efficiency of removal", "setting": "[2]; molar ratio 2 to 1", "value": "(55.7%)"},
      {"measurement": "Treatment 3: Rhamnolipid and Centrifugation (Rc) efficiency of removal", "setting": "[2]; molar ratio 2 to 1", "value": "(38.7%)"},
      {"measurement": "Treatment 1: Rhamnolipid Only (Rr) efficiency of removal", "setting": "[2]; molar ratio 5 to 1", "value": "(26.4%)"},
      {"measurement": "Treatment 2: Rhamnolipid and Filtration (Rf) efficiency of removal", "setting": "[2]; molar ratio 5 to 1", "value": "(83.7%)"},
      {"measurement": "Treatment 3: Rhamnolipid and Centrifugation (Rc) efficiency of removal", "setting": "[2]; molar ratio 5 to 1", "value": "(72.4%)"},
      {"measurement": "Treatment 1: Rhamnolipid Only (Rr) efficiency of removal", "setting": "[2]; molar ratio 10 to 1", "value": "(2.0%)"},
      {"measurement": "Treatment 2: Rhamnolipid and Filtration (Rf) efficiency of removal", "setting": "[2]; molar ratio 10 to 1", "value": "(86.9%)"},
      {"measurement": "Treatment 3: Rhamnolipid and Centrifugation (Rc) efficiency of removal", "setting": "[2]; molar ratio 10 to 1", "value": "(78.7%)"}
    ]}
  ]
}
